Measured values from PubChem BioAssay (NCI).
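Cells were grown in 96-well plates and exposed to each compound for 48 hours at five concentrations; endpoints were interpolated linearly between bracketing concentrations, or set to the highest concentration if not reached. Definition used: TGI = concentration required for complete inhibition of growth.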

Legend:
Assay in all cases: NCI-60 cell line screen, 48 h
SK-MEL-28 melanoma = test system: SK-MEL-28 melanoma
NCI-H460 lung = test system: NCI-H460 lung
MDA-N = test system: MDA-N
DU-145 prostate = test system: DU-145 prostate
SF-295 CNS = test system: SF-295 CNS
HL-60(TB) leukemia = test system: HL-60(TB) leukemia
SF-268 CNS = test system: SF-268 CNS
SW-620 colon = test system: SW-620 colon
NCI-H226 lung = test system: NCI-H226 lung
SN12C renal = test system: SN12C renal
SNB-75 CNS = test system: SNB-75 CNS
KM12 colon = test system: KM12 colon
T-47D breast = test system: T-47D breast
RXF 393 renal = test system: RXF 393 renal
OVCAR-8 ovarian = test system: OVCAR-8 ovarian
SK-MEL-5 melanoma = test system: SK-MEL-5 melanoma
OVCAR-4 ovarian = test system: OVCAR-4 ovarian
MDA-MB-231 breast = test system: MDA-MB-231 breast
MOLT-4 leukemia = test system: MOLT-4 leukemia
786-0 renal = test system: 786-0 renal
HT29 colon = test system: HT29 colon
HCT-15 colon = test system: HCT-15 colon
HS 578T breast = test system: HS 578T breast
BT-549 breast = test system: BT-549 breast
HCC-2998 colon = test system: HCC-2998 colon
CCRF-CEM leukemia = test system: CCRF-CEM leukemia
UO-31 renal = test system: UO-31 renal
SR leukemia = test system: SR leukemia
HOP-62 NSCLC = test system: HOP-62 NSCLC
SF-539 CNS = test system: SF-539 CNS
NCI-H522 lung = test system: NCI-H522 lung
OVCAR-3 ovarian = test system: OVCAR-3 ovarian
HCT-116 colon = test system: HCT-116 colon
MDA-MB-435 = test system: MDA-MB-435
UACC-62 melanoma = test system: UACC-62 melanoma
EKVX NSCLC = test system: EKVX NSCLC
ACHN renal = test system: ACHN renal
M14 melanoma = test system: M14 melanoma
TK-10 renal = test system: TK-10 renal
SK-OV-3 ovarian = test system: SK-OV-3 ovarian
MCF7 breast = test system: MCF7 breast
COLO 205 colon = test system: COLO 205 colon
K-562 leukemia = test system: K-562 leukemia
RPMI-8226 leukemia = test system: RPMI-8226 leukemia
NCI-H23 lung = test system: NCI-H23 lung
UACC-257 melanoma = test system: UACC-257 melanoma
PC-3 prostate = test system: PC-3 prostate
SNB-19 CNS = test system: SNB-19 CNS
CAKI-1 renal = test system: CAKI-1 renal
A549 NSCLC = test system: A549 NSCLC
LOX IMVI melanoma = test system: LOX IMVI melanoma
MALME-3M melanoma = test system: MALME-3M melanoma
SK-MEL-2 melanoma = test system: SK-MEL-2 melanoma
U251 CNS = test system: U251 CNS
HOP-92 NSCLC = test system: HOP-92 NSCLC
A498 renal = test system: A498 renal
OVCAR-5 ovarian = test system: OVCAR-5 ovarian
IGROV1 ovarian = test system: IGROV1 ovarian

Measured: TGI

N#Cc1ccc(/C=C2\Cc3ccccc3C2=O)cc1
> 100 µM: SK-MEL-28 melanoma | NCI-H460 lung | MDA-N | DU-145 prostate | SF-295 CNS | HL-60(TB) leukemia | SF-268 CNS | SW-620 colon | NCI-H226 lung | SN12C renal | SNB-75 CNS | KM12 colon | T-47D breast | RXF 393 renal | OVCAR-8 ovarian | SK-MEL-5 melanoma | OVCAR-4 ovarian | MDA-MB-231 breast | MOLT-4 leukemia | 786-0 renal | HT29 colon | HCT-15 colon | HS 578T breast | BT-549 breast | HCC-2998 colon | CCRF-CEM leukemia | UO-31 renal | SR leukemia | HOP-62 NSCLC | SF-539 CNS | NCI-H522 lung | OVCAR-3 ovarian | HCT-116 colon | MDA-MB-435 | UACC-62 melanoma | EKVX NSCLC | ACHN renal | M14 melanoma | TK-10 renal | SK-OV-3 ovarian | MCF7 breast | COLO 205 colon | K-562 leukemia | RPMI-8226 leukemia | NCI-H23 lung | UACC-257 melanoma | PC-3 prostate | SNB-19 CNS | CAKI-1 renal | A549 NSCLC

C/C(=C1/N=C(c2ccccc2)OC1=O)c1cccs1
> 100 µM: SK-MEL-28 melanoma | NCI-H460 lung | LOX IMVI melanoma | MDA-N | DU-145 prostate | SF-295 CNS | HL-60(TB) leukemia | SF-268 CNS | SW-620 colon | NCI-H226 lung | SN12C renal | MALME-3M melanoma | SNB-75 CNS | KM12 colon | T-47D breast | RXF 393 renal | OVCAR-8 ovarian | SK-MEL-2 melanoma | SK-MEL-5 melanoma | OVCAR-4 ovarian | MDA-MB-231 breast | MOLT-4 leukemia | 786-0 renal | HT29 colon | HCT-15 colon | HS 578T breast | U251 CNS | BT-549 breast | HOP-92 NSCLC | A498 renal | HCC-2998 colon | CCRF-CEM leukemia | SR leukemia | HOP-62 NSCLC | OVCAR-5 ovarian | SF-539 CNS | NCI-H522 lung | IGROV1 ovarian | OVCAR-3 ovarian | HCT-116 colon | MDA-MB-435 | UACC-62 melanoma | EKVX NSCLC | ACHN renal | M14 melanoma | TK-10 renal | SK-OV-3 ovarian | MCF7 breast | COLO 205 colon | K-562 leukemia | RPMI-8226 leukemia | NCI-H23 lung | UACC-257 melanoma | PC-3 prostate | SNB-19 CNS | CAKI-1 renal | A549 NSCLC
